≈ marks a conversion by molar mass, not a printed value. Entries after “also recorded” stand apart in the source; their conditions may differ.
What was measured:
[1] = system: Proteus vulgaris ATCC 6897; assay: Minimum inhibitory concentration by agar dilution method; type: cell-based; details: ATCC6897, read-out: Minimum inhibitory concentration
Source text: Antibacterial spectra of XK-62-2 by agar
(§1) The comparative in vitro activities of these antibiotics against various microorganisms of the genus Proteus are shown in the following Table 6.
(§2) Minimum inhibitory concentration
(§3) (γ/ml : by agar dilution method)

[2] = system: Pseudomonas aeruginosa KY 8510; assay: as above; type: cell-based; details: Pseudomonas aeruginosa, KY8510; agar dilution; clinical isolate; Table 7
Source text: as §2, §3

[3] = system: Pseudomonas aeruginosa KY 4276; assay: as above; type: cell-based; details: KY4276, clinical isolate, Table 7
Source text: as §2, §3

[4] = system: Pseudomonas aeruginosa KY 8562; assay: as above; type: cell-based; details: KY8562, clinical isolate, Table 7
Source text: as §2, §3

[5] = system: Pseudomonas aeruginosa KY 8511; assay: as above; type: cell-based; details: KY8511, clinical isolate, Table 7
Source text: as §2, §3

[6] = system: Pseudomonas aeruginosa KY 8516; assay: as above; type: cell-based; details: Pseudomonas aeruginosa, KY8516; agar dilution; clinical isolate; Table 7
Source text: as §2, §3

[7] = system: Pseudomonas aeruginosa KY 8514; assay: as above; type: cell-based; details: KY8514, clinical isolate, Table 7
Source text: as §2, §3

[8] = system: Pseudomonas aeruginosa KY 8512; assay: as above; type: cell-based; details: KY8512, clinical isolate, Table 7
Source text: as §2, §3

[9] = system: Pseudomonas aeruginosa KY 8515; assay: as above; type: cell-based; details: KY8515, clinical isolate, Table 7
Source text: as §2, §3

[10] = system: Pseudomonas aeruginosa KY 8520; assay: as above; type: cell-based; details: KY8520, clinical isolate, Table 7
Source text: as §2, §3

[11] = system: Proteus vulgaris Abbott JJ; assay: as above; type: cell-based; details: read-out: Minimum inhibitory concentration
Source text: as §1, §2, §3

Proteus morganii Jenkins = assay: as above; type: cell-based; details: Morganella morganii, read-out: Minimum inhibitory concentration
Source text: as §1, §2, §3

Proteus mirabilis No. 39 = assay: as above; type: cell-based; details: NO.39, read-out: Minimum inhibitory concentration
Source text: as §1, §2, §3

Proteus rettgeri Booth = assay: as above; type: cell-based; details: Providencia rettgeri, read-out: Minimum inhibitory concentration
Source text: as §1, §2, §3

[12] = system: Proteus mirabilis Finland 9; assay: as above; type: cell-based; details: FINLAND9, read-out: Minimum inhibitory concentration
Source text: as §1, §2, §3

[13] = system: Proteus rettgeri Hambrook; assay: as above; type: cell-based; details: Providencia rettgeri, read-out: Minimum inhibitory concentration
Source text: as §1, §2, §3

[14] = system: Proteus mirabilis No. 825; assay: as above; type: cell-based; details: NO.825, read-out: Minimum inhibitory concentration
Source text: as §1, §2, §3

[15] = system: specific enzyme system which inactivates gentamicin C1a or kanamycin by acetylating; type: biochemical, Pseudomonas aeruginosa; details: acetylating enzyme of KY 8510 and 8516 strains
[16] = system: Bacillus subtilis No. 10707; assay: Activity (unit/mg) of isolated preparations; paper disk method using an agar plate; type: cell-based
Experimental: (§4) After the completion of fermentation, the culture liquor is adjusted to a pH of 2.0 with 12N sulfuric acid and stirred for 30 minutes. Then, about 10 kg of a filter aid, Radiolite No. 600 (product of Showa Kagaku Kogyo Co., Ltd., Japan) is added thereto and the microbial cells are removed by filtration. The filtrate is adjusted to a pH of 8.0 with 6N sodium hydroxide and passed through a column packed with about 50 l of a cation exchange resin, Amberlite IRC-50 (ammonia form). The active substance is adsorbed on the resin and the eluate is discarded. After washing the resin with water, the active substance is eluted out with 1N aqueous ammonia.
Active fractions are combined and concentrated in vacuo to about 5 l. The concentrate is then adjusted to a pH of 8.0 with 6N sulfuric acid and passed through a column packed with 1 l of an anion exchange resin, Dowex 1×2 (OH^- form). The column is washed with about 5 l of water and the effluent and the washings containing active substance are combined and are concentrated to 1/15 by volume. […] The resultant precipitate is removed by filtration and the filtrate is concentrated to 500 ml. The concentrate is adjusted to a pH of 4.5 with 6N sulfuric acid and 2.5 l of methanol is added thereto. […] The precipitate is separated by filtration and washed with methanol.
as §4, with “of” for “of a filter aid,”, “(trade name)” for “(product of Showa Kagaku Kogyo Co., Ltd., Japan)”, “The” for “The active substance is adsorbed on the resin and the”

Solubility = type: physicochemical
[17] = Example 2, free base, Mm-628 ATCC 21827
[18] = Example 6, free base, Micromonospora purpurea ATCC 15835
[19] = Example 7, free base, Micromonospora echinospora ATCC 15837 NRRL 2985
[20] = Example 7, free base, Micromonospora echinospora var. ferruginea NRRL 2995
[21] = Example 7, free base, Micromonospora echinospora var. pallida NRRL 2996

Compound	MIC [1] [µg/mL]	MIC [2] [µg/mL]	MIC [3] [µg/mL]	MIC [4] [µg/mL]	MIC [5] [µg/mL]	MIC [6] [µg/mL]	MIC [7] [µg/mL]	MIC [8] [µg/mL]	MIC [9] [µg/mL]	MIC [10] [µg/mL]	MIC [11] [µg/mL]	MIC (Proteus morganii Jenkins) [µg/mL]	MIC (Proteus mirabilis No. 39) [µg/mL]	MIC (Proteus rettgeri Booth) [µg/mL]	MIC [12] [µg/mL]	MIC [13] [µg/mL]	MIC [14] [µg/mL]	Activity [16, 17] [unit/mg]	Activity [16, 18] [unit/mg]	Activity [16, 19] [unit/mg]	further results
[H]/N=C(/N)N[C@H]1[C@H](O)[C@@H](O)[C@H](O[C@@H]2O[C@@H](C)[C@](O)(C=O)[C@H]2O[C@@H]2O[C@@H](CO)[C@H](O)[C@@H](O)[C@@H]2NC)[C@@H](N/C(N)=N\[H])[C@@H]1O [streptomycin]	> 40	0.65 (≈ 1.12 µM)	2.6 (≈ 4.47 µM)	156 (≈ 268 µM)	> 2500	0.65 (≈ 1.12 µM)	156 (≈ 268 µM)	42 (≈ 72.2 µM)	624 (≈ 1070 µM)	5.2 (≈ 8.94 µM)	> 40	> 40	> 40	> 40	> 40	> 40	> 40	–	–	–	–
NC[C@H]1O[C@H](O[C@H]2[C@H](O)[C@@H](O[C@H]3O[C@H](CO)[C@@H](O)[C@H](N)[C@H]3O)[C@H](N)C[C@@H]2N)[C@H](O)[C@@H](O)[C@@H]1O [kanamycin]	0.34 (≈ 0.702 µM)	13 (≈ 26.8 µM)	1.63 (≈ 3.36 µM)	167 (≈ 345 µM)	13 (≈ 26.8 µM)	26 (≈ 53.7 µM)	208 (≈ 429 µM)	3.3 (≈ 6.81 µM)	416 (≈ 859 µM)	104 (≈ 215 µM)	0.16 (≈ 0.33 µM)	0.16 (≈ 0.33 µM)	0.33 (≈ 0.681 µM)	0.08 (≈ 0.165 µM)	0.04 (≈ 0.0826 µM)	0.08 (≈ 0.165 µM)	0.04 (≈ 0.0826 µM)	–	–	–	Inactivation by acetylation (6'-NH2) [15]: inactivates
CN[C@@H]1[C@@H](O)[C@@H](O[C@@H]2[C@@H](O)[C@H](O[C@H]3O[C@H]([C@@H](C)N)CC[C@H]3N)[C@@H](N)C[C@H]2N)OC[C@]1(C)O [gentamicin C2, reference compound]	–	–	–	–	–	–	–	–	–	–	–	–	–	–	–	–	–	925	880	845	Activity [16, 20]: 853 unit/mg; Activity [16, 21]: 859 unit/mg
CNC[C@@H]1CC[C@@H](N)[C@@H](O[C@H]2[C@H](O)[C@@H](O[C@H]3OC[C@](C)(O)[C@H](NC)[C@H]3O)[C@H](N)C[C@@H]2N)O1 [sulfate of XK-62-2]	–	–	–	–	–	–	–	–	–	–	–	–	–	–	–	–	–	–	–	–	Solubility in acetone (Solubility; acetone): insoluble; Solubility in methanol (Solubility; methanol): poorly soluble; also recorded: insoluble; Solubility in water (Solubility; water): very soluble; Activity ([16]; Example 4, sulfate): 792 unit/mg
CN[C@@H]1[C@@H](O)[C@@H](O[C@@H]2[C@@H](O)[C@H](O[C@H]3O[C@H]([C@@H](C)NC)CC[C@H]3N)[C@@H](N)C[C@H]2N)OC[C@]1(C)O [gentamicin C1, reference compound]	–	–	–	–	–	–	–	–	–	–	–	–	–	–	–	–	–	880	821	906	Activity [16, 20]: 830 unit/mg; Activity [16, 21]: 940 unit/mg

— patent publication US4045298A, “Antibiotic XK-62-2 and process for production thereof” (priority 1972, dated 1977)
